Test results from patent US6469168B1, “Piperazinylalkylthiopyrimidine derivatives, pharmaceutical compositions containing the same, and a process for the preparation of the active substance” (EGIS Gyógyszergyár Rt., priority 1999, dated 2002).
Where a name gives a salt, the structure may show the parent alone. Read-outs that look alike come from different tables or passages of the source.

Legend:
male SPRD rats = experiment: Elevated plus-maze test; assay type: in vivo, rat; conditions: for minimal effective dose: Rattus norvegicus, po, 1 h, read-out: Minimum effective dose
Procedure: 1. Elevated Plus-Maze Test
The tests were carried out on male SPRD rats weighing 220 to 260 g. Each group of animal consisted of 8 to 10 pieces of rat. The substance to be examined or the vehicle (i.e. distilled water or a 0.4% solution of methylcellulose) was administered to the animals in a volume of 5 ml/kg as a solution or suspension per os 60 minutes prior to the test.
The elevated plus-maze consists of two open and two 40 cm wall enclosed arms of the same size (50×15 cm) arranged in the shape of a cross. The arms of the same type are opposite to each other. The junction of the four arms forms a central square area (15×15 cm). The apparatus is made of a wooden material elevated to a height of 50 cm and illuminated by a dim light from above. The essence of the method is that during the exploration of the apparatus, the animals spend considerably more time in the closed arms than in the open arms due to the natural fear from open space and height. […] Methods., 14, 149-167 (1985)].

male NMRI mice = experiment: Determination of the spontaneous motor activity; conditions: p.o., 60 minutes prior to the test, dose producing 50% of inhibition of motor activity
Procedure: 2. Determination of the Spontaneous Motor Activity
For the experiments, male NMRI mice weighing 20 to 25 g were used. Each treatment group consisted of 10 mice. The substance to be examined or the vehicle (i.e. a 0.4% solution of methylcellulose) was administered to the animals in a volume of 20 ml/kg as a suspension per os 60 minutes prior to the test. […] In case of anxiolytics, the value of the anxiolytic effect depends on the presence or absence of the sedative action (the latter is […]). For the experiments, an apparatus “digital motimeter” having 10 measuring places was used. The motion of the animals was indicated by the interruption of three parallel beams of infrared light at each measuring place, and the interruptions were recorded by the apparatus. The activity of one animal was determined at each measuring place. […] Int.

[1] = p.o., 60 minutes prior to the test, male SPRD rats, time spent in and entries into open arms

Row | Compound | ID50 (male NMRI mice) [mg/kg] | melting point [°C] | minimal effective dose (male SPRD rats; [1]) [mg/kg] | further results
1 | CCOc1ccccc1Cc1c(N)nc(SCCCN2CCN(C=O)CC2)nc1N [Example 7, 4,6-Diamino-2-[3-(4-formyl-1-piperazinyi)propylthio]-5-(2-ethoxybenzyl)pyrimidine] | >100 |  |  | Minimum effective dose (male SPRD rats; [1]): <1 mg/kg
2 | COc1ccccc1Cc1c(N)nc(SCCCCN2CCN(C)CC2)nc1N (as salt: hydrochloride) (hydrate or solvate) [Example 8, 4,6-Diamino-2-[4-(4-methyl-1-piperazinyl)butylthio]-5-(2-methoxybenzyl)pyrimidine trihydrochloride hydrate] |  | 202 |  | 
3 | COc1ccccc1Cc1c(N)nc(SCCN2CCN(C(C)C)CC2)nc1N [Example 5, 4,6-Diamino-2-[2-(4-isopropyl-1-piperazinyl)ethylthio]-5-(2-methoxybenzyl)pyrimidine trihydrochloride hydrate] | >100 |  | 3 | 
4 | Nc1nc(SCCN2CCNCC2)nc(N)c1Cc1ccc(F)cc1 (as salt: hydrochloride) (hydrate or solvate) [Example 19, 4,6-Diamino-2-[2-(1-piperazinyl)ethylthio]-5-(4-fluorobenzyl)-pyrimidine trihydrochloride hydrate] |  | 168 to 170 |  | 
5 | COc1ccccc1Cc1c(N)nc(SCCN2CCNCC2)nc1N [1 (besylate), 4,6-Diamino-5-(2-methoxybenzyl)-2-[2-(1-piperazinyl)ethylthio]-pyrimidine] | >90 |  |  | Minimum effective dose (male SPRD rats; [1]): 1 mg/kg
6 | Nc1nc(SCCCN2CCNCC2)nc(N)c1Cc1ccc(Cl)cc1 [Example 17, 4,6-Diamino-2-[3-(1-piperazinyl)propylthio]-5-(4-chlorobenzyl)-pyrimidine trihydrochloride trihydrate] | >100 |  | 1 | 
7 | COc1ccccc1Cc1c(N)nc(SCCN2CCN(CCCN(C)C)CC2)nc1N [Example 26, 4,6-Diamino-2-{2-[4-(3-dimethylaminopropyl)-1-piperazinyl]-ethylthio}-5-(2-methoxybenzyl)pyrimidine tetrahydrochloride hydrate] | >100 |  | 0.3 | 
8 | COc1ccccc1Cc1c(N)nc(SCCCN2CCNCC2)nc1N [Example 10, 4,6-Diamino-2-[3-(1-piperazinyl)propylthio]-5-(2-methoxy-benzyl)pyrimidine trihydrochloride] |  |  | 1 | 
9 | 4,6-Diamino-5-(2-methoxybenzyl)-2-[2-(1-piperazinyl)ethylthio]-pyrimidine fumarate [Example 2] | >100 |  |  | Minimum effective dose (male SPRD rats; [1]): 1 mg/kg
10 | COc1ccccc1Cc1c(N)nc(SCCCCN2CCNCC2)nc1N (as salt: hydrochloride) [Example 18, 4,6-Diamino-2-[4-(1-piperazinyl)butylthio]-5-(2-methoxybenzyl)-pyrimidine trihydrochloride] |  | 255 |  | 
11 | CN1C(=O)CN=C(c2ccccc2)c2cc(Cl)ccc21 [diazepam, 7-chloro-1,3-dihydro-1-methyl-5-phenyl-2H-1,4-benzodiazepine-2-one, reference compound] |  |  |  | minimal effective dose (male SPRD rats): 1 mg/kg
12 | COc1ccccc1Cc1c(N)nc(SCCN2CCN(C(C)=O)CC2)nc1N [Example 16, 4,6-Diamino-2-[2-(4-acetyl-1-piperazinyl)ethylthio]-5-(2-methoxybenzyl)pyrimidine] | >100 | 198.5 to 199.5 | 3 | 
13 | 4,6-Diamino-2-[3-(1-piperazinyl)ethylthio]-5-(2-ethoxybenzyl)-pyrimidine trihydrochloride trihydrate [Example 14] |  |  |  | Minimum effective dose (male SPRD rats; [1]): 1 mg/kg
14 | Nc1nc(SCCN2CCNCC2)nc(N)c1Cc1ccc(F)cc1 [Example 19, 4,6-Diamino-2-[2-(1-piperazinyl)ethylthio]-5-(4-fluorobenzyl)-pyrimidine trihydrochloride hydrate] | >100 |  | 0.01 | 
15 | COc1ccccc1Cc1c(N)nc(SCCN2CCN(C(C)C)CC2)nc1N (as salt: hydrochloride) (hydrate or solvate) [Example 5, 4,6-Diamino-2-[2-(4-isopropyl-1-piperazinyl)ethylthio]-5-(2-methoxybenzyl)pyrimidine trihydrochloride hydrate] |  | 253 to 255 |  | 
16 | COc1ccccc1Cc1c(N)nc(SCCCN2CCN(C=O)CC2)nc1N [Example 9, 4,6-Diamino-2-[3-(4-formyl-1-piperazinyl)propylthio]-5-(2-methoxybenzyl)pyrimidine] |  | 174 to 176 | 3 | 
17 | Nc1nc(SCCCN2CCNCC2)nc(N)c1Cc1ccc(Cl)cc1 (as salt: hydrochloride) (hydrate or solvate) [Example 17, 4,6-Diamino-2-[3-(1-piperazinyl)propylthio]-5-(4-chlorobenzyl)-pyrimidine trihydrochloride trihydrate] |  | 187 |  | 
18 | COc1ccccc1Cc1c(N)nc(SCCN2CCN(CCCN(C)C)CC2)nc1N (as salt: hydrochloride) (hydrate or solvate) [Example 26, 4,6-Diamino-2-{2-[4-(3-dimethylaminopropyl)-1-piperazinyl]-ethylthio}-5-(2-methoxybenzyl)pyrimidine tetrahydrochloride hydrate] |  | 262 to 264 |  | 
19 | 4,6-Diamino-2-[2-/4-(2-dimethylaminoethyl)-1-piperazinyl/-ethyl-thio]-5-(2-methoxybenzyl)pyrimidine tetrahydrochloride dihydrate [Example 6] | >100 |  |  | Minimum effective dose (male SPRD rats; [1]): 0.03 mg/kg
20 | COc1ccccc1Cc1c(N)nc(SCCCN2CCN(C(C)=O)CC2)nc1N [Example 12, 4,6-Diamino-2-[3-(4-acetyl-1-piperazinyl)propylthio]-5-(2-methoxybenzyl)pyrimidine] |  | 208 to 209 | 1 | 
21 | 4,6-Diamino-2-[4-(4-methyl-1-piperazinyl)ethylthio]-5-(2-ethoxybenzyl)pyrimidine trihydrochloride hydrate [Example 13] |  |  |  | Minimum effective dose (male SPRD rats; [1]): 1 mg/kg
22 | COc1ccccc1Cc1c(N)nc(SCCCCN2CCNCC2)nc1N [Example 18, 4,6-Diamino-2-[4-(1-piperazinyl)butylthio]-5-(2-methoxybenzyl)-pyrimidine trihydrochloride] | >100 |  | 1 | 
23 | COc1ccccc1Cc1c(N)nc(SCCCN2CCNCC2)nc1N (as salt: hydrochloride) [Example 10, 4,6-Diamino-2-[3-(1-piperazinyl)propylthio]-5-(2-methoxy-benzyl)pyrimidine trihydrochloride] |  | 197 to 198 |  | 
24 | 4,6-Diamino-2-[2-(4-methyl-1-piperazinyl)propylthio]-5-(2-methoxybenzyl)pyrimidine trihydrochloride hydrate [Example 4] | 32.8 |  |  | Minimum effective dose (male SPRD rats; [1]): 1 mg/kg
25 | COc1ccccc1Cc1c(N)nc(SCCCCN2CCN(C)CC2)nc1N [Example 8, 4,6-Diamino-2-[4-(4-methyl-1-piperazinyl)butylthio]-5-(2-methoxybenzyl)pyrimidine trihydrochloride hydrate] | >100 |  | 3 | 
26 | CC(C)c1ccc(Cc2c(N)nc(SCCN3CCNCC3)nc2N)cc1 [Example 25, 4,6-Diamino-2-[2-(1-piperazinyl)ethylthio]-5-(4-isopropylbenzyl)-pyrimidine] |  | 63 to 64 |  | 
27 | COc1ccccc1Cc1c(N)nc(SCCN2CCNCC2)nc1N [Example 1 (fumarate), 4,6-Diamino-5-(2-methoxybenzyl)-2-[2-(1-piperazinyl)ethylthio]-pyrimidine] | >100 |  |  | Minimum effective dose (male SPRD rats; [1]): 3 mg/kg
